Experimental findings from patent publication US20170096402A1, “5-(HETERO)ARYLPYRIDAZINONES AND THEIR USE AS HERBICIDES” (BAYER CROPSCIENCE AKTIENGESELLSCHAFT, priority 2014, published 2017) are described below.

One data set concerns wheat. Description: Pre-emergence method, damage to crop plants. Type of data set: in vivo. An excerpt:
Seeds of monocotyledonous and dicotyledonous weed plants and crop plants are laid out in wood-fiber pots in sandy loam and covered with soil. The compounds of the invention, formulated in the form of wettable powders (WP) or as emulsion concentrates (EC), are then applied to the surface of the covering soil in the form of an aqueous suspension or emulsion at a water application rate equating to 600 to 800 I/ha, with addition of 0.2% wetting agent. After the treatment, the pots are placed in a greenhouse and kept under good growth conditions for the trial plants. The damage to the test plants is scored visually after a test period of 3 weeks by comparison with untreated controls (herbicidal activity in percent (%): 100% activity=the plants have died, 0% activity=like control plants).

The test system of data set [1] is Triticum aestivum (wheat). As to the kind of experiment: Post-emergence method, damage to crop plants (also comparative experiments, TRZAS). It is filed as in vivo. As for the experimental part:
Seeds of monocotyledonous and dicotyledonous weed and crop plants are laid out in sandy loam in wood-fiber pots, covered with soil and cultivated in a greenhouse under good growth conditions. 2 to 3 weeks after sowing, the test plants are treated at the one-leaf stage. The compounds of the invention, formulated in the form of wettable powders (WP) or as emulsion concentrates (EC), are then sprayed onto the green parts of the plants in the form of an aqueous suspension or emulsion at a water application rate equating to 600 to 800 I/ha, with addition of 0.2% wetting agent. After the test plants have been left to stand in the greenhouse under optimal growth conditions for about 3 weeks, the action of the preparations is assessed visually in comparison to untreated controls (herbicidal action in percent (%): 100% activity=the plants have died, 0% activity=like control plants).

[2] abbreviates: pre-emergence, 320 g per hectare, 3 weeks.
Where [3] appears, read: post-emergence, 20 g per hectare, about 3 weeks.

Turning to `Cc1c(-c2cnn(C)c(=O)c2O)ccc(C(F)(F)F)c1SCC1CC1` [1-553], the damage in wheat result (in the data set on wheat (setting [2]); in data set [1] (setting [3])) was “no damage” each time.

As to `COCC[S+]([O-])c1c(C(F)(F)F)ccc(-c2cnn(C)c(=O)c2O)c1C` (centres unmarked) [1-1070], the damage in wheat result (with wheat (setting [2]); in data set [1] (setting [3])) was “no damage” throughout.

On to `COCCSc1c(C(F)(F)F)ccc(-c2cnn(C)c(=O)c2O)c1C` [1-1069], for which the damage in wheat result (in the data set with wheat (setting [2]); in data set [1] (setting [3])) was “no damage” in each case.

As for `Cc1c(-c2cnn(C)c(=O)c2O)ccc(C(F)(F)F)c1[S+]([O-])CC1CC1` (centres unmarked) [1-554], the damage in wheat entry in data set [1] (setting [3]) is recorded as “no damage”.

For the compound `Cc1c(-c2cnn(C)c(=O)c2O)ccc(C(F)(F)F)c1S(=O)(=O)CC1CC1` [1-555, 5-{3-[(cyclopropylmethyl)sulfonyl]-2-methyl-4-(trifluoromethyl)phenyl}-4-hydroxy-2-methylpyridazin-3(2H)-one], the damage in wheat entry (in the data set with wheat (in vivo); in data set [1] (in vivo)) was “no damage” in each case.

In the case of `COCCS(=O)(=O)c1c(C(F)(F)F)ccc(-c2cnn(C)c(=O)c2O)c1C` [1-1071], the damage in wheat result (in the data set on wheat (setting [2]); in data set [1] (setting [3])) was “no damage” in each case.
